The NIST ThermoML archive (doi:10.1021/je0602263)

Assay: xn = mol fraction of the nth substance listed
Settings: 298.15 K, 101 kPa, Liquid

COC(=O)OC [dimethyl carbonate] + CC(C)CC(C)(C)C
Settings	mass density [kg/m3]
x1 = 0.0497	696.81
x1 = 0.1	706.22
x1 = 0.15	716.12
x1 = 0.2001	726.95
x1 = 0.2499	738.38
x1 = 0.2998	750.67
x1 = 0.3498	763.75
x1 = 0.4004	777.96
x1 = 0.4498	792.89
x1 = 0.5002	809.29
x1 = 0.5499	826.46
x1 = 0.5998	845.2
x1 = 0.6502	865.43
x1 = 0.7	887.02
x1 = 0.75	910.31
x1 = 0.8	935.94
x1 = 0.8499	963.69
x1 = 0.8999	993.77
x1 = 0.9498	1026.79
x1 = 1	1063.19

CC(C)CC(C)(C)C [2,2,4-trimethylpentane] + COC(=O)OC
Settings	mass density [kg/m3]
x2 = 0	688.04

Cc1ccccc1 [toluene] + COC(=O)OC
Settings	mass density [kg/m3]
x2 = 0	862.5

COC(=O)OC [dimethyl carbonate] + Cc1ccccc1
Settings	mass density [kg/m3]
x1 = 0.0498	869.9
x1 = 0.0998	877.68
x1 = 0.15	885.75
x1 = 0.1999	893.96
x1 = 0.2498	902.39
x1 = 0.2999	911.1
x1 = 0.3498	919.98
x1 = 0.4	929.22
x1 = 0.4498	938.57
x1 = 0.4999	948.26
x1 = 0.5499	958.27
x1 = 0.5999	968.51
x1 = 0.65	979.06
x1 = 0.7	989.94
x1 = 0.7499	1001.14
x1 = 0.8001	1012.77
x1 = 0.8501	1024.73
x1 = 0.8998	1037.03
x1 = 0.9502	1049.89
x1 = 1	1063.19

COC(=O)OC [dimethyl carbonate] + CCCCCCC
Settings	mass density [kg/m3]
x1 = 0.0501	690.16
x1 = 0.0999	700.47
x1 = 0.15	711.7
x1 = 0.1998	723.65
x1 = 0.2501	736.28
x1 = 0.2999	749.59
x1 = 0.3501	763.95
x1 = 0.4	779.05
x1 = 0.4499	795.07
x1 = 0.5001	812.18
x1 = 0.5498	830.25
x1 = 0.6	849.67
x1 = 0.6499	870.23
x1 = 0.7001	892.23
x1 = 0.75	915.72
x1 = 0.8	941.09
x1 = 0.8501	968.3
x1 = 0.9001	997.61
x1 = 0.9501	1029.09
x1 = 1	1063.19

c1ccccc1 [benzene] + COC(=O)OC
Settings	mass density [kg/m3]
x2 = 0	873.56

COC(=O)OC [dimethyl carbonate] + c1ccccc1
Settings	mass density [kg/m3]
x1 = 0.0499	882
x1 = 0.1	890.57
x1 = 0.15	899.18
x1 = 0.2001	907.93
x1 = 0.2499	916.61
x1 = 0.3	925.59
x1 = 0.3498	934.53
x1 = 0.4	943.7
x1 = 0.45	952.89
x1 = 0.5001	962.25
x1 = 0.55	971.69
x1 = 0.6	981.28
x1 = 0.6499	990.96
x1 = 0.7001	1000.84
x1 = 0.7501	1010.88
x1 = 0.8001	1021.01
x1 = 0.8498	1031.36
x1 = 0.8999	1041.69
x1 = 0.9501	1052.35
x1 = 1	1063.19

CCCCCCC [heptane] + COC(=O)OC
Settings	mass density [kg/m3]
x2 = 0	680.52
